Tests used:
[1] = tested on: BUD-8 human skin fibroblasts; assay: Fibroblast assay: proliferation of BUD-8 skin cell fibroblasts; assay type: cell-based; conditions: concentration not given
Protocol: The human skin cell fibroblast line, BUD-8 was obtained prior to each assay from the American Type Culture Collection. This is a fibroblast-like cell line which was originally derived from the normal skin of a person.
(§1) BUD-8 cell cultures were expanded for use in 25 cm^2 flasks at 37° C. in an atmosphere of 5% CO2 in air. At approximately 4-5 five day intervals, or when confluence was reached, the cells were passaged. This was accomplished by detaching the cells with a Teflon scraper, washing and reseeding the cells at a lower density into fresh tissue culture flasks.
(§2) The effect of the compound of the present invention on the proliferative capacity of human BUD-8 skin fibroblasts was measured with the use of a ^3 H-thymidine incorporation assay using culture conditions which were similar to those used for a Con-A blastogenesis assay, described previously. Cultured skin cells were detached from the surface of tissue culture flasks mechanically with a Teflon scraper. The cells were washed, resuspended in incubation medium and the viabilities were determined. These cells were then plated in triplicate at a density of 2×10^3 cells/0.1 ml/microtiter well for the proliferation assay and a density of 1×10^4 cells/0.1 ml/microtiter well for the assays to quantitate PGE2 and LTB4. To these cells was added incubation medium containing indomethacin to inhibit prostaglandin production, or nordihydroguaiaretic acid (NDGA) to inhibit leukotriene production (positive controls).
After 3 days of culture, 1 uCi ^3 H-thymidine was added in a 50 ul volume to each culture well of the microtiter plates. Eighteen hours later, each of the BUD-8 cultures was examined morphologically for evidence of compound-induced toxicity such as cell rounding or granularity. The thymidine-pulsed cells were then precipitated and the amount of ^3 H-thymidine incorporated was counted in a liquid scintillation counter.
The concentrations of the compounds of the invention which were used in these assays were:
The incubation medium used for culturing the BUD-8 cells was RPMI-1640 medium containing 10% fetal bovine serum, 100 ug/ml streptomycin, 100 U/ml penicillin, 0.2M Hepes buffer solution, 5×10^-5 M 2-mercaptoethanol and 2 mM glutamine.

[2] = tested on: GS-109-V-20 human skin cell fibroblasts; assay: Fibroblast assay: proliferation of GS-109-V-20 skin cell fibroblasts; assay type: cell-based; conditions: for ^3 H-Thymidine uptake by GS-109-V-20 skin cells (control compound): 2 × 10^-6 M Indomethacin, 2 × 10^-6 N NDGA
Protocol: The effect of methyl 3-O-3'-(N',N'-dimethylamino-n-propyl)-6-deoxy-D-glucopyranoside on the proliferative capacity of human GS-109-V-20 skin fibroblasts was measured with the use of ^3 H-thymidine incorporation assay. Cultured skin cells were detached from the surface of tissue culture flasks mechanically with a Teflon scraper. The cells were washed, resuspended in incubation medium and the viabilities determined. These cells were then plated in triplicate at a density of 1×10^3 cells/0.1 ml/microtiter well. To these cells was added 0.1 ml incubation medium containing the methyl 3-O-3'-(N',N'-dimethylamino-n-propyl)-6-deoxy-D-glucopyranoside compound.
After 3 days of culture, 1#uCi ^3 H-thymidine was added in 50 ul volume to each culture well of the microtiter plates. Eighteen hours later, each of the GS-109-V-20 cultures was examined morphologically for evidence of drug-induced toxicity such as cell rounding or granularity. The ^3 H-thymidine-pulsed cells were then precipitated and the amount of ^3 H-thymidine incorporation was counted on a liquid scintillation counter.
Methyl 3-O-3'-(N',N'-dimethylamino-n-propyl)-6-deoxy-D-glucopyranoside was suspended directly into the medium by extensive sonication, without being filter-sterilized. A range of doses of this compound was used to measure effects of this compound upon GS-109-V-20 cell proliferation. The following doses were used:
The human skin cell fibroblast line, GS-109-V-20, was obtained from the American Type Culture-Collection. […] These cells were selected for use because they are considered to exist in an initiated state, as opposed to being normal or transformed, and have a more extensive population doubling time and survival period in culture than do normal fibroblasts. In this regard, they would more closely reflect the biological characteristics of psoriatic or rheumatoid synovial fibroblasts which also proliferate more extensively than do normal fibroblasts, but not as extensively as immortalized transformed tumor cells.
as §1, with “The number of GS-109-V-20 cells was” for “BUD-8 cell cultures were”, “use in the described assays by culture” for “use”, “4-5” for “4-5 five”, “by trypsinization,” for “with a Teflon scraper,”

[3] = tested on: LTB4 production by BUD-8 skin cell fibroblasts; assay: LTB4 production by BUD-8 skin cell fibroblasts (radioimmunoassay); assay type: cell-based, human; conditions: concentration not given; for % effect on LTB4 production (positive control): 1080 min
Protocol: as §2
(§3) After 18 hours of culture, samples of the BUD-8 skin cell supernatants were collected from one set of microtiter plates and frozen until assayed for PGE2 or for LTB4 content using the radioimmunoassays described below.
Levels of LTB4 in aliquots of BUD-8 skin cell cultures supernatants were quantitated by radioimmunoassay (New England Nuclear). Briefly, into each polyproplyene tube were mixed 0.1 ml anti-LTB4, 0.1. ml ^3 H-LTB4 and 0.1 ml LTB4 standard or LTB4 containing sample. The BUD-8 skin cell culture supernatants were used directly in the radioimmunoassay. Tubes were refrigerated overnight. A charcoal solution (0.5 ml of 0.5% charcoal Norit A) was added and each tube was centrifuged. The radioactivity in the supernatant was then counted in a liquid scintillation counter.

[4] = tested on: T lymphocytes (normal mouse spleen cells) stimulated with ConA; assay: Mouse Spleen Cell ConA Blastogenesis Assay; assay type: cell-based, mouse (C57Bl/6); conditions: control compound, concentration not given
[5] = tested on: PGE2 production by BUD-8 skin cell fibroblasts; assay: PGE2 production by BUD-8 skin cell fibroblasts (radioimmunoassay); assay type: cell-based, human; conditions: concentration not given; for % effect on PGE2 production (positive control): 1080 min
Protocol: as §2, §3
A radioinmunoassay (New England Nuclear) was used to quantitate PGE2 levels in BUD-8 skin cell culture supernatants. Briefly, into each polypropylene tube were mixed 0.1 ml anti-PGE2, 0.1 ml ^125 1-PGE2 and 0.1 ml PGE2 standard or PGE2 containing sample. The BUD-8 skin culture supernatants were diluted 1:2 prior to addition to the radioimmunoassay. Tubes were refrigerated overnight. A polyethylene glycol solution (16%, 6,000 m.w.) was then added to precipitate immune complexes and the radioactivity in the precipitate was counted in a gamma counter.

| SMILES | % effect on BUD-8 proliferation (positive control) [1] [%] | ^3 H-Thymidine uptake by BUD-8 skin cells (positive control) [1] | ^3 H-Thymidine uptake by GS-109-V-20 skin cells (control compound) [2] | inhibition at 2 µM ([2]; Homo sapiens, Fibroblast, read-out: % effect on GS-109-V-20 proliferation (control compound)) [%] | LTB4 in supernatant (positive control) [3] | calculated LTB4 production/10^5 BUD-8 cells (positive control) [3] | % effect on LTB4 production (positive control) [3] | % effect on ConA blastogenic response (positive control) ([4]; ConA 1 ug/ml) | Blastogenic response of normal spleen cells to Con-A (positive control) ([4]; ConA 1 ug/ml) | % effect on ConA blastogenic response (positive control) ([4]; ConA 4 ug/ml) [%] | Blastogenic response of normal spleen cells to Con-A (positive control) ([4]; ConA 4 ug/ml) | PGE2 in supernatant (positive control) [5] | calculated PGE2 production/10^5 BUD-8 cells (positive control) [5] [pg per 10^5 cells] | % effect on PGE2 production (positive control) [5] [%] |
| --- | --- | --- | --- | --- | --- | --- | --- | --- | --- | --- | --- | --- | --- | --- |
| COc1ccc2c(c1)c(CC(=O)O)c(C)n2C(=O)c1ccc(Cl)cc1 [Indo., indomethacin, reference compound] | -17 | 6,043 ± 184 cpm | 3,317 ± 351 cpm | 14 | 39.4 ± 5.3 pg LTB4 100 ul supernatant | 1,771 pg per 10^5 cells | +10% | +4% | 57.7 ± 8.7 × 10^-3 cpm | -17 | 70.0 ± 5.6 × 10^-3 cpm | 5.3 ± 0.5 pg PGE2 /50 ul supernatant | 187 | -66 |
| CC(Cc1ccc(O)c(O)c1)C(C)Cc1ccc(O)c(O)c1 (stereo not drawn) [NDGA, nordihydroguaiaretic acid, reference compound] | -5 | 6,925 ± 313 cpm | 3,179 ± 489 cpm |  | 19.9 ± 1.5 pg LTB4 100 ul supernatant | 794 pg per 10^5 cells | -45% | -14% | 47.6 ± 5.0 × 10^-3 cpm | -24 | 64.1 ± 9.2 × 10^-3 cpm | 14.7 ± 0.8 pg PGE2 /50 ul supernatant | 933 | -8 |

— patent US5298494A, “Monosaccharides having anti-proliferation and anti-inflammatory activity, compositions and uses thereof” (Greenwich Pharmaceuticals Incorporated, priority 1993, dated 1994)
